# According to the AptaBench aptamer set (doi:10.1093/nar/gkaf219):
# Tested on: DNA aptamer or structured DNA GGGACGACGGCACGGGGTTATTCGTTGGTTGCACTGCGCTGGGAGGCAGTCGTCCC
# Details: 10 mM Tris-HCl, pH 7.4
# For binding call in this document: call rule not given here.
Compound,binding call,Kd [nM]
CN[C@@H](C)[C@@H](O)c1ccccc1,no binding,
NCC(O)c1ccc(O)c(O)c1 (stereo unspecified),no binding,
CN1CC[C@]23c4c5ccc(O)c4O[C@H]2[C@@H](O)C=C[C@H]3[C@H]1C5,no binding,
CC(N)Cc1ccccc1 (stereo unspecified),binds,
CN[C@@H](C)Cc1ccccc1,,5300
CNC(C)Cc1ccc2c(c1)OCO2 (stereo unspecified),binds,

# Tested on: DNA aptamer or structured DNA CTTACGACCTAAGGGTCTGGAGTGGTTGTTATACGCTGGTCGTAAG
# Details: 10 mM Tris-HCl, pH 7.4
row,Compound,binding call
1,COc1ccc2c3c1O[C@H]1C(=O)CC[C@@]4(O)[C@@H](C2)N(C)CC[C@]314,no binding
2,CNC(C)Cc1ccc2c(c1)OCO2 (stereo unspecified),no binding
3,CC(C)[C@H](NC(=O)c1nn(Cc2ccc(F)cc2)c2ccccc12)C(N)=O,no binding
4,CC(=O)Oc1ccc2c3c1O[C@H]1[C@@H](OC(C)=O)C=C[C@H]4[C@@H](C2)N(C)CC[C@@]341,no binding

# Tested on: DNA aptamer or structured DNA CTTACGACTAGGTGGGGGTCGGCGCCGTAGGTGGGGTAGTCGTAAG
# Details: 10 mM Tris-HCl, pH 7.4
row,Compound,binding call
1,COc1ccc2c3c1O[C@H]1C(=O)CC[C@@]4(O)[C@@H](C2)N(C)CC[C@]314,no binding
2,CC(=O)Nc1ccc(O)cc1,no binding
3,CC(=O)Oc1ccc2c3c1O[C@H]1[C@@H](OC(C)=O)C=C[C@H]4[C@@H](C2)N(C)CC[C@@]341,no binding

# Tested on: DNA aptamer or structured DNA CTTACGACACATTTGGGTATTCTGGGTGAGCTGTGTCGTAAG
# Details: 10 mM Tris-HCl, pH 7.4
row,Compound,binding call
1,COc1ccc2c3c1O[C@H]1C(=O)CC[C@@]4(O)[C@@H](C2)N(C)CC[C@]314,no binding
2,CC(N)Cc1ccccc1 (stereo unspecified),no binding
3,CNC(C)Cc1ccc2c(c1)OCO2 (stereo unspecified),no binding
4,CC(C)[C@H](NC(=O)c1nn(Cc2ccc(F)cc2)c2ccccc12)C(N)=O,no binding

# Tested on: DNA aptamer or structured DNA GGGACGACGGGGGGCTTTAGGGTGTAGGAGTGGGGTGAGTCGTCCC
# Details: 10 mM Tris-HCl, pH 7.4
Compound,binding call,Kd [nM]
CN(C)CCOC(c1ccccc1)c1ccccc1,binds,
COc1ccc2c3c1O[C@H]1C(=O)CC[C@@]4(O)[C@@H](C2)N(C)CC[C@]314,no binding,
CC(N)Cc1ccccc1 (stereo unspecified),no binding,
CN[C@@H](C)Cc1ccccc1,no binding,
CNC(C)Cc1ccc2c(c1)OCO2 (stereo unspecified),no binding,
CC(C)[C@H](NC(=O)c1nn(Cc2ccc(F)cc2)c2ccccc12)C(N)=O,,138
CC(=O)Oc1ccc2c3c1O[C@H]1[C@@H](OC(C)=O)C=C[C@H]4[C@@H](C2)N(C)CC[C@@]341,no binding,

# Tested on: DNA aptamer or structured DNA GGGACGACTAGCGGTGTTGGTCGGAGTGGTGGAATCTAGTCGTCCC
# Details: 10 mM Tris-HCl, pH 7.4
Compound,binding call,Kd [nM]
CN(C)CCOC(c1ccccc1)c1ccccc1,no binding,
COc1ccc2c3c1O[C@H]1C(=O)CC[C@@]4(O)[C@@H](C2)N(C)CC[C@]314,no binding,
CNC(C)Cc1ccc2c(c1)OCO2 (stereo unspecified),no binding,
CC(C)[C@H](NC(=O)c1nn(Cc2ccc(F)cc2)c2ccccc12)C(N)=O,,411
CC(=O)Oc1ccc2c3c1O[C@H]1[C@@H](OC(C)=O)C=C[C@H]4[C@@H](C2)N(C)CC[C@@]341,no binding,

# Tested on: DNA aptamer or structured DNA CTTACGACCACCATGGGAATCGGGTGGCTTGGAGGTGCGTCGTAAG
# Details: 10 mM Tris-HCl, pH 7.4
row,Compound,binding call
1,CN[C@@H](C)[C@@H](O)c1ccccc1,binds
2,CN(C)CCOC(c1ccccc1)c1ccccc1,no binding
3,CN1CC[C@]23c4c5ccc(O)c4O[C@H]2[C@@H](O)C=C[C@H]3[C@H]1C5,no binding
4,CC(=O)Nc1ccc(O)cc1,no binding
5,CN[C@@H](C)Cc1ccccc1,binds
6,CCOC(=O)c1ccc(N)cc1,no binding
7,CC(=O)Oc1ccc2c3c1O[C@H]1[C@@H](OC(C)=O)C=C[C@H]4[C@@H](C2)N(C)CC[C@@]341,binds

# Tested on: DNA aptamer or structured DNA TTCAAATCTTGCGAATTGGACTCAGAATGTGGGTTTGCCAGTCTAGATTTGAA
# Details: 10 mM Tris-HCl, pH 7.4
Compound,binding call,Kd [nM]
CC(N)Cc1ccccc1 (stereo unspecified),no binding,
CN[C@@H](C)Cc1ccccc1,no binding,
CNC(C)Cc1ccc2c(c1)OCO2 (stereo unspecified),no binding,
CC(C)[C@H](NC(=O)c1nn(Cc2ccc(F)cc2)c2ccccc12)C(N)=O,,998

# Tested on: DNA aptamer or structured DNA GGGACGACTAGCCCTAGCGTTGTTCGAGTCCATGAGTAGTCGTCCC
# Details: 10 mM Tris-HCl, pH 7.4
Compound,binding call,Kd [nM]
CCOC(=O)c1ccc(N)cc1,no binding,
CC(=O)Oc1ccc2c3c1O[C@H]1[C@@H](OC(C)=O)C=C[C@H]4[C@@H](C2)N(C)CC[C@@]341,,3310

# Tested on: DNA aptamer or structured DNA GGGACGACAGGGATTCGGTCTTGGTACATAGGGGCCTCGTCTGTCGTCCC
# Details: 10 mM Tris-HCl, pH 7.4
Compound,binding call,Kd [nM]
NCC(O)c1ccc(O)c(O)c1 (stereo unspecified),no binding,
CN1CC[C@]23c4c5ccc(O)c4O[C@H]2[C@@H](O)C=C[C@H]3[C@H]1C5,,1100

# Tested on: DNA aptamer or structured DNA TTCAAATCTAGCGCAGGTAGGGGTGTAGGTGTGGGGGTAAGTCTAGATTTGAA
# Details: 10 mM Tris-HCl, pH 7.4
row,Compound,binding call
1,CN(C)CCOC(c1ccccc1)c1ccccc1,no binding
2,COc1ccc2c3c1O[C@H]1C(=O)CC[C@@]4(O)[C@@H](C2)N(C)CC[C@]314,no binding
3,CC(N)Cc1ccccc1 (stereo unspecified),no binding
4,CN[C@@H](C)Cc1ccccc1,no binding
5,CNC(C)Cc1ccc2c(c1)OCO2 (stereo unspecified),no binding
6,CCOC(=O)c1ccc(N)cc1,no binding
7,CC(=O)Oc1ccc2c3c1O[C@H]1[C@@H](OC(C)=O)C=C[C@H]4[C@@H](C2)N(C)CC[C@@]341,no binding

# Tested on: DNA aptamer or structured DNA GGGACGACGGGATTCGGATCGTGGAACAGTGCCTCGTCGTCGTCCC
# Details: 10 mM Tris-HCl, pH 7.4
Compound,binding call,Kd [nM]
CN(C)CCOC(c1ccccc1)c1ccccc1,no binding,
CC(=O)Nc1ccc(O)cc1,no binding,
CN[C@@H](C)Cc1ccccc1,no binding,
CCOC(=O)c1ccc(N)cc1,no binding,
CC(=O)Oc1ccc2c3c1O[C@H]1[C@@H](OC(C)=O)C=C[C@H]4[C@@H](C2)N(C)CC[C@@]341,,850

# Tested on: DNA aptamer or structured DNA GGGACGACGGGATGGTAAGTGGCAGGTCGTTGGAATTTCTACTGTATCGTCGTCCC
# Details: 10 mM Tris-HCl, pH 7.4
Compound,binding call,Kd [nM]
COC(=O)C(c1ccccc1)C1CCCCN1 (stereo unspecified),binds,
CN[C@@H](C)[C@@H](O)c1ccccc1,binds,
NCC(O)c1ccc(O)c(O)c1 (stereo unspecified),binds,
CN(C)CCOC(c1ccccc1)c1ccccc1,no binding,
CCCC(C(=O)c1ccc2c(c1)OCO2)N1CCCC1 (stereo unspecified),no binding,
CN1CC[C@]23c4c5ccc(O)c4O[C@H]2[C@@H](O)C=C[C@H]3[C@H]1C5,binds,
CC(N)Cc1ccccc1 (stereo unspecified),binds,
CN[C@@H](C)Cc1ccccc1,,4400
CNC(C)Cc1ccc2c(c1)OCO2 (stereo unspecified),binds,

# Tested on: DNA aptamer or structured DNA CTTACGACGTTGGGCTTATTAGGGGCTGGAGTGGGTGAGTCGTAAG
# Details: 10 mM Tris-HCl, pH 7.4
row,Compound,binding call
1,CN(C)CCOC(c1ccccc1)c1ccccc1,no binding
2,COc1ccc2c3c1O[C@H]1C(=O)CC[C@@]4(O)[C@@H](C2)N(C)CC[C@]314,no binding
3,CN1CC[C@]23c4c5ccc(O)c4O[C@H]2[C@@H](O)C=C[C@H]3[C@H]1C5,no binding
4,CNC(C)Cc1ccc2c(c1)OCO2 (stereo unspecified),no binding
5,CC(C)[C@H](NC(=O)c1nn(Cc2ccc(F)cc2)c2ccccc12)C(N)=O,no binding

# Tested on: DNA aptamer or structured DNA GGGACGACGGCACGAGGTTAATCGTTGGTTGCACTGCGCTGGGAGGCAGTCGTCCC
# Details: 10 mM Tris-HCl, pH 7.4
Compound,binding call,Kd [nM]
CN[C@@H](C)[C@@H](O)c1ccccc1,no binding,
NCC(O)c1ccc(O)c(O)c1 (stereo unspecified),binds,
CCCC(C(=O)c1ccc2c(c1)OCO2)N1CCCC1 (stereo unspecified),no binding,
CN1CC[C@]23c4c5ccc(O)c4O[C@H]2[C@@H](O)C=C[C@H]3[C@H]1C5,no binding,
CC(N)Cc1ccccc1 (stereo unspecified),binds,
CN[C@@H](C)Cc1ccccc1,,6400
CNC(C)Cc1ccc2c(c1)OCO2 (stereo unspecified),binds,

# Tested on: DNA aptamer or structured DNA GGGACGACAAAATGGCAGCATTGGTGACGGAGTTGCTTGTCGTCCC
# Details: 10 mM Tris-HCl, pH 7.4
row,Compound,binding call
1,COC(=O)C(c1ccccc1)C1CCCCN1 (stereo unspecified),no binding
2,COc1ccc2c3c1O[C@H]1C(=O)CC[C@@]4(O)[C@@H](C2)N(C)CC[C@]314,no binding

# Tested on: DNA aptamer or structured DNA GGGACGACGGCACGAGGTAATTCGTTGGTTGCACTGCGCTGGGAGGCAGTCGTCCC
# Details: 10 mM Tris-HCl, pH 7.4
row,Compound,binding call
1,CN[C@@H](C)[C@@H](O)c1ccccc1,no binding
2,NCC(O)c1ccc(O)c(O)c1 (stereo unspecified),binds
